pIC50: −log10 of the molar value.
Experiments:
[1] = target: T1, POSH (Homo sapiens, UniProt Q7Z6J0); assay: IC50 assay procedure: GST-POSH auto-ubiquitination, homogeneous time-resolved fluorescence (Ub-cryptate / anti-GST XL665); format: biochemical; details: ubiquitin ligase activity of POSH; GST-POSH 33 nM, 30 min preincubation
T1 construct: GST-POSH lot NB81/p.118 3.6 mg/ml; fused on or other part: GST tag, used for detection with anti-GST XL665
T1 sequence (Q7Z6J0 1-269 limits assumed): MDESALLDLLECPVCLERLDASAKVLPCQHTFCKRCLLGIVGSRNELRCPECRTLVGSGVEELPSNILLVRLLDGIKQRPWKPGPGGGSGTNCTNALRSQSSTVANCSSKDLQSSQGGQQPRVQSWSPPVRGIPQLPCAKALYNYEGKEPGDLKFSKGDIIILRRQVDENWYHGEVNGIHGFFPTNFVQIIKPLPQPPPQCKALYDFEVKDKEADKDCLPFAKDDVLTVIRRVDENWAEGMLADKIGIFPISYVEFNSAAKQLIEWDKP
From the text: In certain preferred embodiments, agents that inhibit (or promote) the ubiquitin ligase activity of a ubiquitin ligase, such as POSH, may be identified using a homogenous time resolved fluorescence assay. Such an assay may employ a GST fused to the RING subunit of a ubiquitin ligase (e.g. POSH). Two flurophore-conjugated detection reagents are also used: anti-GSTXL665 and europium cryptate labeled ubiqutin. The ubiqutination of the ubiquitin ligase by ubiqutin cryptate and binding of the anti-GST tagged XL665 brings the fluorophores into close proximity allowing FRET reaction to occur. Accordingly, FRET serves as a measurement of ubiquitination of the ubiquitin ligase. An enzymatic system may be set up to provide activated ubiquitin, e.g., by providing ubiquitin, an E1 and an E2. Compounds that will not allow the FRET reaction are considered to be inhibitors.
Step 3: establish IC 50 value measurements.
Experimental Protocols: 1. HTS Screening Assay Procedure • Microplates 10109D to 10114D compounds at 1 mM. • (Controls in column 1). • All compounds were perchase from ChemBridge corporation: ChemBridge corporation 16981 Via Tazon, Suite G San Diego, Calif. 92127 a. Microplates Labeling • Put labels to 6 PS U-bottom clear microplate. • Put labels to 18 black microplates (triplicats). b. Microplates Preparation • Put 100 μl GST-POSH at 33 nM in wells of the clear PS U-bottom microplates (exept wells A1-D1). • Negative control: place 100 μl dH2O in wells A1-D1. • (Positive control: place 100 μl GST-POSH at 33 nM in wells E1-H1). • Put 8 μl enzymes solution ×4 to black microplates (column 1 to 11). c. Incubation of E3 with Compounds • Transfer 5 μl of compounds (at 1 mM) to the microplates containing 100 μl GST-POSH. • Add 5 μl of DMSO to controls column 1. • Incubation 30 minutes at RT. d. Enzymatic (Ubiquitination) and Final Steps • Distribution of (triplicate) 3×23 μl incubated compounds into 3 black microplates containing enzymatic solution (on splitting apparatus). • Incubation 30 minutes at 37° C. • Addition of 8 μl EDTA 0.5 M. • Incubation 15 (at least) minutes at RT. • Addition of 30 μl GST XL 665 in reconstitution buffer. • Incubation 45 (at least) minutes at RT. • Reading fluorescence. • Record results in computer. • Put sealing foil back on original and diluted microplates and keep at −70° C. • Always the plates must be closed with lids during each step. 2. […] Microplates Labeling • Put labels to 4 clear PP clear microplate (18.2 μM, 9.1 uM, 1.82 uM, 910 nM,). • Put labels to 5 clear PS U-bottom clear microplate 4.44 μM, 909, 444, 91 and 44 nM) • Put labels to 15 black microplates (triplicates). f. Original Microplate Dilutions • Put DMSO 40 μl to (18.2 μM, 1.82 uM plates) and 20 ul to (9.1 uM, 910 nM plates. • Mix by pipetation the original microplate (3× up and down 45 μl). • Transfer 10 μl of compounds from the original microplate (at 91 μM) to the next microplate (=18.2 μM) on splitting apparatus. • Mix by pipetation the 18.2 uM microplate (3× up and down 45 μl). • Transfer 20 μl of compounds from the 18.2 uM microplate to the next microplate (=9.1 μM) on splitting apparatus. • Mix by pipetation the 9.1 uM microplate (3× up and down 45 μl). • Transfer 10 μl of compounds from the 9.1 uM microplate to the next microplate (=1.82 μM) on splitting apparatus. • Mix by pipetation the 1.82 uM microplate (3× up and down 45 μl). • Transfer 20 μl of compounds from the 1.82 uM microplate to the next microplate (=910 nM) on splitting apparatus • Mix by pipetation. g. Microplates Preparation • Put 123 μl GST-POSH at 33 nM in wells of the 5 clear PS U-bottom clear microplates. • Positive control: place 123 μl GST-POSH at 33 nM in well A12-h12 13 μl DMSO. • Negative control: place 123 μl dH2O in well B1 and 13 μl DMSO. • Put 8 μl enzymes solution ×4 to 15 black microplates. • Controls: put 8 μl enzymes solution ×4 to wells A1 to F1. h. […]

[2] = system: HIV-1; assay: HIV maturation (budding) in virus-like particle assay, HIV-1 p24 antigen ELISA; format: cell-based; details: Human immunodeficiency virus 1, read-out: Budding (3 μM)
From the text: Compounds were further assessed for effects on maturation of HIV particles in a virus-like particle assay.

| Structure (SMILES) | pIC50 [1] | activity at 3 µM [2] [%] |
| --- | --- | --- |
| CC(C)(C)c1ccc(C2=N/C(=C\c3cccs3)C(=O)O2)cc1 [Compound 48] | 5.89 | 58 |
| CCCOC(=O)c1ccc(/N=C/c2c(O)ccc3ccccc23)cc1 [Compound 69] | 6.15 | 41 |
| Cc1c(Br)c(=O)oc2c(Br)c(O)c(O)cc12 [Compound 83] | 6.00 |  |

Now from value to compound, other results behind:

| pIC50 [1] | Structure (SMILES) | activity at 3 µM [2] [%] |
| --- | --- | --- |
| 5.70 | CC(=C\c1ccccc1)/C=C1/NC(=S)NC1=O [Compound 30] |  |
| 6.19 | O=C1/C(=C\c2cc(Cl)ccc2O)Sc2ccccc21 [Compound 44] |  |

Source: US7659277B2, “Ubiquitin ligase inhibitors and methods related thereto” (Proteologies, Ltd., priority 2003, dated 2010)
